In publication PMC8704432, “Isolation, Structure Determination of Sesquiterpenes from Neurolaena lobata and Their Antiproliferative, Cell Cycle Arrest-Inducing and Anti-Invasive Properties against Human Cervical Tumor Cells” (Pharmaceutics, 2021):
Like-named read-outs stand apart in the source and are kept apart here.

Assays:
[1] = test system: HeLa (HPV 18+) human cervical cell line; test: Antiproliferative MTT assay, HeLa; type: cell-based; settings: for inhibition at 10 µM / inhibition at 30 µM: read-out: Growth Inhibition Values (%) ± SEM; for IC50: read-out: Calculated IC50 Values (μM) [95% CI]
Description: (§1) Antiproliferative effect of the isolated compounds were determined in vitro using SiHa (HPV 16+), HeLa (HPV 18+), C33A (HPV negative) human cervical cell lines, NIH-3T3 mouse embryonic and MRC-5 human fibroblast cells by means of MTT ([3-(4,5-dimethylthiazol-2-yl)-2,5-diphenyltetrazolium bromide]) assay. Briefly, a limited number of human cancer cells (5000/well for SiHa and HeLa cells, 10,000/well in case of C33A cells) were seeded onto a 96-well microplate and became attached to the bottom of the well overnight. On the second day of the procedure, the test substances were added in two concentrations (10.0 and 30.0 µM) in order to obtain preliminary data and then the compounds were applied in serial dilution (applied final concentrations were: 0.1, 0.3, 1.0, 3.0, 10.0, 30.0 µM). Further details of the experiment were described in ref. [30]. All in vitro experiments were carried out on two 96-well dishes with at least five parallel wells [31].

[2] = test system: C33A (HPV negative) human cervical cell line; test: Antiproliferative MTT assay, C33A; type: cell-based; settings: for inhibition at 10 µM / inhibition at 30 µM: read-out: Growth Inhibition Values (%) ± SEM
Description: as §1

[3] = test system: SiHa (HPV 16+) human cervical cell line; test: Antiproliferative MTT assay, SiHa; type: cell-based; settings: for inhibition at 10 µM / inhibition at 30 µM: read-out: Growth Inhibition Values (%) ± SEM; for IC50: read-out: Calculated IC50 Values (μM) [95% CI]
Description: as §1

[4] = test system: NIH/3T3 (mouse embryonic fibroblast); test: Antiproliferative MTT assay, NIH/3T3; type: cell-based
Description: as §1

MRC-5 (human fibroblast) = test: Antiproliferative MTT assay, MRC-5; type: cell-based
Description: as §1

[5] = test system: GLC4 human small cell lung carcinoma; design: method as in PMID 8657743; settings: GLC4 cells; read-out: IC50 (cytotoxicity); cited from earlier work
[6] = test system: COLO 320 human colorectal cancer cells; design: method as in PMID 8657743; settings: COLO 320 cells; read-out: IC50 (cytotoxicity); cited from earlier work
SiHa cells [7] = test: Cell cycle analysis by flow cytometry; type: cell-based, human; settings: 48 or 72 h treatment
Description: Cell cycle analysis was performed as described in [32, 33].

SiHa cells [8] = test: Wound healing assay; type: cell-based, human
Description: In order to assess antimetastatic activity of the tested compound, wound healing assay was performed. The assay was done with specific wound healing assay chambers (Ibidi GmbH, Gräfelfing, Germany). SiHa cells were collected and 35,000 cells were seeded into both chambers of the insert. Cells were let to be attached to the plate surface during an overnight incubation at 37 °C in 5% CO2 atmosphere and then the inserts were removed. Cell debris was removed by a washing step with PBS. Test compounds were added to the wells in increasing concentrations in 2% FBS containing medium for 24 and 48 h. Migration of the cells into the wound site was visualized by phase-contrast inverted microscope (Axiovert 40, Zeiss, Thornwood, NY, USA). Images were taken with CCD camera at definite intervals and the migration of the cells was calculated as the ratio of wound closure by ImageJ software.

[9] = Homo sapiens, C-33-A, read-out: Calculated IC50 Values (μM) [95% CI], C33A, MTT
[10] = Mus musculus, NIH3T3, NIH/3T3, MTT, read-out: Calculated IC50 Values (μM) [95% CI]
[11] = Mus musculus, NIH3T3, NIH/3T3, 10 μM, MTT, read-out: Growth Inhibition Values (%) ± SEM
[12] = Mus musculus, NIH3T3, NIH/3T3, 30 μM, MTT, read-out: Growth Inhibition Values (%) ± SEM
[13] = Homo sapiens, MRC5, MRC-5, MTT, read-out: Calculated IC50 Values (μM) [95% CI]
[14] = Homo sapiens, MRC5, MRC-5, 10 μM, MTT, read-out: Growth Inhibition Values (%) ± SEM
[15] = Homo sapiens, MRC5, MRC-5, 30 μM, MTT, read-out: Growth Inhibition Values (%) ± SEM
[16] = NIH/3T3, MTT, read-out: Calculated IC50 Values (μM) [95% CI]
[17] = MRC-5, MTT, read-out: Calculated IC50 Values (μM) [95% CI]
[18] = Mus musculus, NIH3T3, read-out: Growth Inhibition Values (%) ± SEM
[19] = Homo sapiens, MRC5, read-out: Growth Inhibition Values (%) ± SEM
[20] = read-out: Calculated IC50 Values (μM) [95% CI], C33A, MTT

Structure (SMILES) | inhibition at 10 µM ([1]; Homo sapiens, 10 μM) [%] | inhibition at 30 µM ([1]; Homo sapiens, 30 μM) [%] | IC50 ([1]; Homo sapiens) [µM] | IC50 [2, 9] [µM] | inhibition at 10 µM ([2]; Homo sapiens, C-33-A) [%] | inhibition at 30 µM ([2]; Homo sapiens, C-33-A) [%] | inhibition at 10 µM ([3]; Homo sapiens, 10 μM) [%] | inhibition at 30 µM ([3]; Homo sapiens, 30 μM) [%] | IC50 ([3]; Homo sapiens) [µM] | other results
C=C1C(=O)O[C@@H]2/C=C(/C)C3=CC(=O)[C@](C)(O3)[C@H](OC(=O)CC(C)C)[C@@H](O)[C@@H]12 [Compound 3, 8β-hydroxy-9α-isovaleroyloxyatripliciolide] | 91.42 ± 0.34 | 96.6 ± 1.17 | 4.76 | 6.82 | 79.2 ± 3.33 | 94.46 ± 0.21 | 60.6 ± 1.58 | 78.8 ± 1.23 | 7.81 | IC50 [4, 10]: 4.12 µM; inhibition at 10 µM [4, 11]: 92.96 ± 0.56%; inhibition at 30 µM [4, 12]: 98.15 ± 0.13%; IC50 (MRC-5 (human fibroblast); [13]): 6.67 µM; inhibition at 10 µM (MRC-5 (human fibroblast); [14]): 88.1 ± 1.22%; inhibition at 30 µM (MRC-5 (human fibroblast); [15]): 97.58 ± 0.1%
C=C1C(=O)O[C@@H]2/C=C(/C)C3=CC(=O)[C@](C)(O3)[C@H](O)[C@@H](OC(=O)CC(C)C)[C@@H]12 [Lobatin B] | – | – | – | – | – | – | – | – | – | IC50 [5]: 0.6 µM; IC50 [6]: 1.1 µM
N.N.[Cl][Pt][Cl] [Cispl., cisplatin, reference compound] | – | – | – | – | – | – | – | – | – | Growth Inhibition Values (%) ± SEM ([1]; 10 μM): 32.23 ± 1.16%; Growth Inhibition Values (%) ± SEM ([1]; 30 μM): 93.70 ± 0.82%; IC50 [1]: 12.1 µM; Growth Inhibition Values (%) ± SEM ([2]; C33A, 10 μM, MTT): 77.17 ± 1.21%; Growth Inhibition Values (%) ± SEM ([2]; C33A, 30 μM, MTT): 97.50 ± 0.13%; IC50 ([2]; C33A, MTT, read-out: Calculated IC50 Values (μM) [95% CI]): 5.85 µM; Growth Inhibition Values (%) ± SEM ([3]; 10 μM): 60.98 ± 0.92%; Growth Inhibition Values (%) ± SEM ([3]; 30 μM): 88.95 ± 0.53%; IC50 [3]: 4.29 µM; Growth Inhibition Values (%) ± SEM ([4]; NIH/3T3, 10 μM, MTT): 73.88 ± 0.46%; Growth Inhibition Values (%) ± SEM ([4]; NIH/3T3, 30 μM, MTT): 97.10 ± 0.15%; IC50 [4, 16]: 5.5 µM; Growth Inhibition Values (%) ± SEM (MRC-5 (human fibroblast); MRC-5, 30 μM, MTT): 70.65 ± 1.34%; IC50 (MRC-5 (human fibroblast); [17]): 5.77 µM
C=C1C(=O)O[C@@H]2[C@@H](CC3=C4[C@@H](C[C@@H](C)/C=C\C(=O)[C@](C)(O)[C@H](OC(C)=O)[C@H]4OC(=O)CC(C)C)OC3=O)[C@@H](C)C3=CC(=O)[C@](C)(O3)[C@H](O)[C@@H](OC(=O)CC(C)C)[C@@H]12 [Compound 7, Lobatolide D] | 91.87 ± 0.72 | 96.44 ± 0.1 | 6 | 6.62 | 94.66 ± 0.19 | 95.18 ± 0.31 | 77.2 ± 1.04 | 93.5 ± 0.42 | 6.02 | IC50 ([4]; Mus musculus, NIH3T3, read-out: Calculated IC50 Values (μM) [95% CI]): 5.68 µM; inhibition at 10 µM [4, 18]: 90.7 ± 1.2%; inhibition at 30 µM [4, 18]: 98.06 ± 0.19%; IC50 (MRC-5 (human fibroblast); Homo sapiens, MRC5, read-out: Calculated IC50 Values (μM) [95% CI]): 15.4 µM; inhibition at 10 µM (MRC-5 (human fibroblast); [19]): < 20%; inhibition at 30 µM (MRC-5 (human fibroblast); [19]): 97.63 ± 0.27%
CC(C)[C@@H]1CC[C@@]2(C)C(=O)CCC(CO)=C[C@@H]12 [Compound 10, (+)-aphanamol I] | < 20 | 36.5 ± 1.55 | – | – | < 20 | < 20 | < 20 | < 20 | – | –
C=C1C(=O)O[C@@H]2C[C@@H](C)/C=C\C(=O)[C@@](C)(O)[C@H](OC(C)=O)[C@@H](OC(=O)CC(C)C)[C@@H]12 [Neu B, neurolenin B, reference compound] | 94 ± 0.59 | 94.81 ± 0.37 | < 1.4 | – | 98.29 ± 0.03 | 97.91 ± 0.15 | 88.73 ± 0.36 | 93.42 ± 0.33 | < 1.4 | IC50 [1]: 1.24 µM; IC50 [2, 20]: < 1.4 µM; IC50 [3]: 1.33 µM; IC50 [4, 10]: < 1.4 µM; inhibition at 10 µM [4, 11]: 98.11 ± 0.09%; inhibition at 30 µM [4, 12]: 98.02 ± 0.05%; IC50 [4, 16]: 1.31 µM; IC50 (MRC-5 (human fibroblast); [13]): 5.18 µM; inhibition at 10 µM (MRC-5 (human fibroblast); [14]): 94.26 ± 0.23%; inhibition at 30 µM (MRC-5 (human fibroblast); [15]): 97.46 ± 0.21%; IC50 [5]: 1.1 µM; IC50 [6]: 1.2 µM
C=C1C(=O)OC2C=C(C)C(OC(C)=O)CC3OC3(C)CC(OC(=O)CC(C)C)C12 (centres unmarked) [Compound 6, Lobatolide C] | < 20 | 91.9 ± 1.23 | 15.7 | 3.2 to 3.6 | 96.55 ± 0.22 | 96.72 ± 0.33 | 84.2 ± 2.32 | 84.8 ± 1.89 | 3.2 to 3.6 | IC50 [2, 20]: 3.53 µM; IC50 [3]: 3.24 µM; IC50 [4, 10]: > 11 µM; inhibition at 10 µM [4, 11]: 40.7 ± 2.92%; inhibition at 30 µM [4, 12]: 96.8 ± 0.25%; IC50 [4, 16]: 11.2 µM; IC50 (MRC-5 (human fibroblast); [13]): > 11 µM; inhibition at 10 µM (MRC-5 (human fibroblast); [14]): < 20%; inhibition at 30 µM (MRC-5 (human fibroblast); [15]): 73 ± 1.64%; IC50 (MRC-5 (human fibroblast); [17]): 11.9 µM; Cell cycle distribution (SiHa cells [7]): significant concentration-dependent accumulation of cells in the S phase; Wound closure (SiHa cells [8]; 1.5 µM, 48 h (control 70%)): 47%; Wound closure (SiHa cells [8]; 3 µM, 24 h (control 30%)): 12%; Wound closure (SiHa cells [8]; 3 µM, 48 h (control 70%)): 18%
COC[C@H]1C(=O)O[C@@H]2C[C@@H](C)/C=C\C(=O)[C@](C)(O)[C@H](OC(C)=O)[C@@H](OC(=O)CC(C)C)[C@H]21 [Compound 5, Lobatolide B] | < 20 | 63.9 ± 3.23 | – | – | 50.5 ± 3.49 | 90 ± 1.4 | < 20 | 65.5 ± 2.52 | – | –
COC[C@@H]1C(=O)O[C@@H]2C[C@@H](C)C3=CC(=O)[C@](C)(O3)[C@H](O)[C@@H](OC(=O)CC(C)C)[C@@H]12 [Compound 2, Lobatolide A] | < 20 | 21.6 ± 2.42 | – | – | < 20 | 36.6 ± 2.95 | < 20 | < 20 | – | –
C=C1C(=O)O[C@@H]2C[C@@H](C)C3=CC(=O)[C@](C)(O3)[C@H](OC(=O)CC(C)C)[C@@H](O)[C@@H]12 [Compound 1, 8β-Hydroxy-9α-isovaleroyloxycalyculatolide] | 20.4 ± 0.62 | 81.8 ± 1.7 | 16.8 | 5.89 | 90 ± 2.54 | 91.79 ± 0.22 | 77.93 ± 0.56 | 92.1 ± 0.73 | 4.86 | –
C=C1C(=O)O[C@@H]2/C=C(/C)C3=CC(=O)[C@](C)(O3)[C@H](OC(C)=O)[C@@H](OC(=O)CC(C)C)[C@@H]12 [Compound 4, Lobatin C] | 83.9 ± 1.8 | 90.1 ± 1.03 | 5.1 | 2.05 | 97.27 ± 0.18 | 97.19 ± 0.41 | 79.8 ± 1.47 | 94.62 ± 0.27 | 2.22 | –
C=C1CC[C@@H](O)[C@]2(C)CC[C@@H](C(C)C)[C@H](O)[C@@H]12 [Compound 9, Volenol] | < 20 | 37.3 ± 2.65 | – | – | < 20 | 26.7 ± 2.73 | < 20 | 35.7 ± 1.29 | – | –
